Here are results for 1 compound from PMC10150926, “PHT427 as an effective New Delhi metallo-β-lactamase-1 (NDM-1) inhibitor restored the susceptibility of meropenem against Enterobacteriaceae producing NDM-1” (Frontiers in Microbiology, 2023).

Common to all, as to format: binding
The target in experiment [1] is T1, New Delhi metallo-β-lactamase-1 (NDM-1) (Klebsiella pneumoniae, UniProt C7C422, Q123A).
T1 construct: gene blaNDM-1
As to the kind of experiment: SPR.

Experiment [2] addresses T2, New Delhi metallo-β-lactamase-1 (NDM-1) (Klebsiella pneumoniae, UniProt C7C422).
T2 construct: gene blaNDM-1
As to the kind of experiment: SPR (also fluorescence quenching; purified enzyme inhibition with meropenem, IC50 […]).

Experiment [3] addresses T3, New Delhi metallo-β-lactamase-1 (NDM-1) (Klebsiella pneumoniae, UniProt C7C422, N220A).
T3 construct: gene blaNDM-1
Briefly: SPR.

On to `CCCCCCCCCCCCc1ccc(S(=O)(=O)Nc2nncs2)cc1` [PHT427, 4-dodecyl-N-1,3,4-thiadiazol-2-yl-benzenesulfonamide], for which the equilibrium dissociation constant (Kd) is 124 µM in experiment [1], 62.8 µM in experiment [2] and 896 µM in experiment [3].
